Laboratory results from PMC6152192, “Novel Methylselenoesters as Antiproliferative Agents” (Molecules : A Journal of Synthetic Chemistry and Natural …, 2017).
Where two headings read alike, the source gives them in different places.

Assays:
[1] = Methylselenol (CH3SeH) release by hydrolysis, quantified with DTNB (Ellman's reagent); assay type: physicochemical; details: 100 μM compound, 100 μM DTNB; for CH3SeH release / hydrolysis rate: 100 mM phosphate buffer, 1 mM EDTA, pH 8, followed over 72 h
Text: The new compounds were designed as CH3SeH precursors. The chemical features of the selenoester functional group facilitate a nucleophilic attack (i.e., with water) which would deliver the CH3SeH residue. In order to verify if CH3SeH could be released from the molecules by hydrolysis and if the rate differed among the compounds, the reaction of CH3SeH with 5,5′-dithiobis(2-nitrobenzoic acid) (DTNB or Ellman’s reagent) in aqueous environment was monitored. Briefly, when the disulfide bridge of DTNB reacts with thiols or selenols, 2-nitro-5-thiobenzoate (TNB^2−) is released and the mixed disulfide or selenylsulfide is formed. Each released CH3SeH produces one yellow TNB^2− species, whose absorbance can be quantified at 412 nm (Figure 2A).
A stock solution of the compounds was prepared in anhydrous DMSO (10 mM). The compounds were placed in a 96-well plate in a final concentration of 100 μM. Reaction started after adding 200 μL of an aqueous 100 mM Na2HPO4 buffer (1 mM EDTA, pH = 8), containing 100 μM of DTNB from a freshly prepared 10 mM ethanolic stock, which were added just before starting the reaction. The DTNB concentration was quantified with a cysteine standard curve ([…]). Blanks for the compounds in the absence of DTNB were also included as well as a blank to measure the slow but spontaneous hydrolysis of DTNB, which was further subtracted from all the values. Absorbance was read at 412 nm in a FLUOstar Omega microplate reader (BMG LabTech, Ortenberg, Germany). Results represent means of triplicate values ± SD.
Figure 2 CH3SeH release rates are dependent on the chemical features of the molecule. Released CH3SeH was quantified through reaction with Ellman’s reagent (DTNB). (A) Proposed reaction between CH3SeH and DTNB; (B) Quantification of TNB^2− at different times. The compounds were tested at 100 μM in 200 μL of 100 mM phosphate buffer (1 mM EDTA, pH = 8). DTNB concentration was also 100 μM. Absorbance was followed at 412 nm over 72 h. A cysteine standard curve (7.5–150 μM) was used to calculate the concentration of TNB^2− over time. Compounds showing less than 15% hydrolysis at 72 h are not included, except for compound 5 as example. Error bars indicate SD of triplicates.

[2] = tested on: PC-3 (prostate adenocarcinoma); experiment: MTT viability assay, PC-3; assay type: cell-based
Procedure: (§1) The novel compounds were tested against a panel of different cancer lines: PC-3 (prostate adenocarcinoma), MCF7 (mammary adenocarcinoma), HTB-54 (lung carcinoma), K-562 (chronic myelogenous leukemia) and HT-29 (colorectal adenocarcinoma). Two non-malignant cell lines, BEAS-2B (bronchial epithelial) and 184B5 (mammary epithelial) were also included to evaluate the toxicity of the novel synthesized compounds. The antiproliferative activity was measured with the [3-(4,5-dimethylthiazol-2-yl)-2,5-diphenyltetrazolium bromide] (MTT) assay after 72 h treatment. Six concentrations ranging from 0.1 to 100 μM were tested. MSA is largely known as the main CH3SeH putative precursor and was therefore included as positive control. The following parameters were calculated: GI50 (concentration which reduces the growth by 50%), TGI (concentration completely inhibiting growth) and LC50 (concentration that kills 50% of the cells).
(§2) All cells were purchased from the American Type Culture Collection (ATCC, Barcelona, Spain). HT-29 (colorectal adenocarcinoma), HTB-54 (grade III lung carcinoma), MCF7 (mammary adenocarcinoma), PC-3 (grade IV prostate adenocarcinoma) and K-562 (chronic myelogenous leukemia) were cultured in RPMI (Gibco, Madrid, Spain), 10% FBS (Gibco), 100 units/mL penicillin and 100 μg/mL streptomycin (Gibco). BEAS-2B cell line (normal epithelial lung) was cultured in DMEM (Gibco), 10% FBS, 100 units/mL penicillin and 100 μg/mL streptomycin. 184B5 (normal mammary gland) cell line was cultured in DMEM:F12 supplemented with 5% FBS, 1 × ITS (Lonza, Barcelona, Spain), 100 nM hydrocortisone (Sigma-Aldrich), 2 mM sodium pyruvate (Lonza), 20 ng/mL EGF (Sigma-Aldrich), 0.3 nM trans-retinoic acid (Sigma-Aldrich), 100 units/mL penicillin and 100 µg/mL streptomycin. Cells were cultured at 37 °C under 5% CO2.
(§3) Cell viability after treatment was assessed by the well-known 3-(4,5-dimethyl-thiazol-2-yl)-2,5-diphenyltetrazolium bromide (MTT, Sigma-Aldrich) assay. Briefly, 10,000 cells were seeded in 96-well plates, treated and incubated for 72 h. Dilutions of the compounds in cell medium were freshly prepared from a 0.01 M stock in DMSO. After treatment, 50 μL of MTT solution in PBS (2 mg/mL) were added and cells were incubated for 4 h. Medium was removed and 150 μL of DMSO was added to dissolve the formed formazan crystals. Absorbance was read at 550 nm in a microplate absorbance reader (Sunrise, Tecan, Männedorf, Switzerland).

[3] = tested on: MCF7 (mammary adenocarcinoma); experiment: MTT viability assay, MCF7; assay type: cell-based; details: MCF7, 72 h
Procedure: as §1, §2, §3

[4] = tested on: 184B5 (non-malignant mammary epithelium); experiment: MTT viability assay, 184B5; assay type: cell-based; details: 184B5 non-malignant, 72 h, MTT; for CC50: read-out: LC50 (the source's name)
Procedure: as §1, §2, §3

[5] = tested on: K-562 (chronic myelogenous leukemia); experiment: MTT viability assay, K-562; assay type: cell-based
Procedure: as §1, §2, §3

[6] = tested on: HT-29 (colorectal adenocarcinoma); experiment: MTT viability assay, HT-29; assay type: cell-based; details: HT-29, 72 h
Procedure: as §1, §2, §3

HTB-54 (lung carcinoma) = experiment: MTT viability assay, HTB-54; assay type: cell-based; details: HTB-54, 72 h
Procedure: as §1, §2, §3

[7] = tested on: BEAS-2B (non-malignant bronchial epithelial); experiment: MTT viability assay, BEAS-2B; assay type: cell-based; details: BEAS-2B non-malignant, 72 h, MTT; for CC50: read-out: LC50 (the source's name)
Procedure: as §1, §2, §3

[8] = MTT viability assay, 184B5; assay type: cell-based; details: human
Procedure: as §1, §2, §3

[9] = MTT viability assay, BEAS-2B; assay type: cell-based; details: human
Procedure: as §1, §2, §3

[10] = tested on: thioredoxin reductase (TrxR1); experiment: Thioredoxin reductase activity assay (NADPH consumption); assay type: biochemical; details: 100 nM TrxR1, 227 μM NADPH, TE buffer pH 8, 45 min
Procedure: The assay was performed as previously described, but in a final volume of 200 μL in a 96-well plate. Reaction started after addition of 133 μL of TE buffer (20 mM Tris, 2 mM EDTA, pH = 8), 0.227 mM NADPH (freshly prepared) to different concentrations of compounds solved in DMSO and TrxR1 (final concentration 100 nM). NADPH consumption was followed measuring absorbance decrease at 340 nm in a VersaMax microplate reader (Molecular Devices, Sunnyvale, CA, USA) over 45 min. A background sample with DMSO without the compounds was included and subtracted from the values.
(§4) Figure 7 Compounds 5 and 15 are substrates for thioredoxin reductase but not for the glutathione-glutaredoxin system. (A) NADPH consumption indicating reduction of compounds 5, 15 or MSA as control by thioredoxin reductase. The reaction mixture contained 100 nM TrxR1, 227 μM NADPH and the corresponding amount of compound in TE buffer (20 mM Tris, 2 mM EDTA pH = 8); (B) NADPH consumption indicating reduction of MSA by glutathione in the presence or absence of glutaredoxin. The reaction mixture contained the corresponding amount of compound, 0.1 M Tris, 2 mM EDTA pH = 8, 0.1 mg/mL BSA, 1 mM GSH, 200 μM NADPH, 0.008 OD/mL yeast GR and 1 μM hGrx1 when required. Only results for MSA are shown, as compounds 5 and 15 were not reduced.

[11] = tested on: glutathione-glutaredoxin (GSH-Grx) system; experiment: Glutaredoxin/glutathione assay (NADPH consumption); assay type: biochemical; details: 1 mM GSH, 200 μM NADPH, yeast GR, 1 μM hGrx1 when required, 45 min
Procedure: The assay was performed as previously described, with minor modifications and adapted for a 96-well plate. A mixture of 0.1 M Tris pH 8, 2 mM EDTA pH = 8, 0.1 mg/mL BSA, 1 mM GSH, 200 μM NADPH, and 0.008 OD/mL yeast GR was prepared (all reagents were purchased from Sigma-Aldrich). Reactions were performed with 1 μM hGrx1 (IMCO Corporation, Stockholm, Sweden) when corresponding and different concentrations of the compounds. A 100 μL mixture was added, and the final volume was adjusted to 110 μL per well. Consumption of NADPH was monitored at A340 on a VersaMax microplate reader (Molecular Devices) for 45 min.
as §4

[12] = PC-3, 72 h, MTT, read-out: LC50 (the source's name)
[13] = MTT, read-out: LC50 (the source's name)
[14] = K-562, 72 h, MTT, read-out: LC50 (the source's name)

Compound | CH3SeH release / hydrolysis rate [1] | GI50 ([2]; PC-3, 72 h, MTT) [µM] | CC50 [2, 12] [µM] | GI50 ([3]; MTT) [µM] | TGI ([3]; MTT) [µM] | CC50 [3, 13] [µM] | GI50 [4] [µM] | TGI [4] [µM] | CC50 [4] [µM] | GI50 ([5]; K-562, 72 h, MTT) [µM] | TGI ([5]; K-562, 72 h, MTT) [µM] | CC50 [5, 14] [µM] | TGI ([6]; MTT) [µM] | GI50 (HTB-54 (lung carcinoma); MTT) [µM] | TGI (HTB-54 (lung carcinoma); MTT) [µM] | CC50 (HTB-54 (lung carcinoma); [13]) [µM] | GI50 [7] [µM] | TGI [7] [µM] | CC50 [7] [µM] | TGI ([2]; PC-3, 72 h, MTT) [µM] | other results
Methyl 5-isoxazolecarboselenoate [Compound 6] | completely hydrolyzed within the first two hours of incubation | 4.5 ± 1.3 | 61.5 ± 14 | 3.5 ± 1 | 8.8 ± 0.7 | 71.9 ± 3.2 | 2.7 ± 0.2 | 6.0 ± 0.4 | 9.3 ± 2 | 18.5 ± 7.1 | 58.3 ± 3.5 | 98.1 ± 0.7 | 15.1 ± 6.7 | 9 ± 2.8 | 43.9 ± 3.9 | 82 ± 1.3 | 3 ± 0.9 | 5.6 ± 0.7 | 8.2 ± 0.5 | – | GI50 ([6]; MTT): 5 ± 0.8 µM; CC50 [6, 13]: 90.8 ± 15 µM
C[Se]C(=O)c1cnccn1 [Compound 3, Methyl pyrazinecarboselenoate] | – | 5.4 ± 1.1 | – | – | 7.2 ± 1.0 | – | – | 6.6 ± 0.9 | – | – | 59.1 ± 2.1 | – | 9.1 ± 0.8 | 6.2 ± 1.5 | 21.1 ± 4.1 | – | – | 6.1 ± 0.5 | – | 15.3 ± 1.7 | CH3SeH release at 24 h ([1]; phosphate buffer pH 8, 24 h): completely released; CC50 ([2]; 72 h, read-out: LC50): 60.5 ± 4.3 µM; CC50 ([3]; Homo sapiens, read-out: LC50): 40.1 ± 4.4 µM; GI50 ([3]; Homo sapiens, MTT): 3.5 ± 0.8 µM; CC50 at 72 h [8]: 17.6 ± 4.4 µM; GI50 ([4]; Homo sapiens): 3.1 ± 0.5 µM; CC50 ([5]; Homo sapiens, K562, 72 h, read-out: LC50): 87.9 ± 2 µM; GI50 ([5]; Homo sapiens, K562, K-562, 72 h, MTT): 30.2 ± 2.2 µM; CC50 ([6]; Homo sapiens, read-out: LC50): > 100 µM; GI50 ([6]; Homo sapiens, MTT): 4.7 ± 0.6 µM; CC50 (HTB-54 (lung carcinoma); read-out: LC50): 71.1 ± 3.8 µM; CC50 at 72 h [9]: 8.6 ± 0.5 µM; GI50 ([7]; Homo sapiens): 3.6 ± 0.6 µM
Methyl 6-bromochromone-2-carboselenoate [Compound 11] | completely hydrolyzed within the first two hours of incubation | 5.3 ± 1.1 | 66.2 ± 2.4 | 4.2 ± 0.7 | 8.2 ± 1.1 | > 100 | 3.3 ± 0.1 | 6.7 ± 0.9 | 14.5 ± 4.5 | 81.9 ± 4 | >100 | > 100 | 9.6 ± 3 | 9.4 ± 3.5 | 52.3 ± 2.9 | > 100 | 2.4 ± 0.9 | 5.0 ± 0.8 | 7.6 ± 0.7 | 17.1 ± 5.0 | GI50 ([6]; MTT): 4.9 ± 0.7 µM; CC50 [6, 13]: 74.4 ± 4.2 µM
C[Se](=O)O [MSA, Methylseleninic acid, reference compound] | – | 4.4 ± 1.1 | 47.6 ± 4.6 | 1.5 ± 0.5 | 5.4 ± 0.5 | 9.4 ± 1 | 5.3 ± 1.2 | 9.2 ± 1.3 | 13.1 ± 1.3 | – | – | – | – | 3.5 ± 0.1 | 6.9 ± 0.2 | 19.9 ± 1.2 | 3.7 ± 0.7 | 6.2 ± 1.2 | 8.7 ± 1.8 | 8.5 ± 2.4 | reduction by TrxR1 (NADPH consumption) [10]: consistently reduced; reduction by GSH in the presence or absence of glutaredoxin (NADPH consumption) [11]: consistently reduced
Methyl 4-nitrobenzoselenoate [Compound 1] | more sustained release | 5.8 ± 0.7 | 75.7 ± 3.3 | 4.1 ± 0.5 | 7.9 ± 0.9 | 45 ± 4.6 | 3.4 ± 0.4 | 6.4 ± 1.1 | 9.3 ± 0.6 | 50.1 ± 2.3 | 85.3 ± 4.9 | > 100 | 9.3 ± 1.4 | – | 50.5 ± 5.1 | 78.6 ± 2.9 | 3.8 ± 0.3 | 6.4 ± 0.4 | 9 ± 0.7 | 10.4 ± 2.3 | GI50 ([6]; MTT): 5 ± 0.7 µM; CC50 [6, 13]: 87.2 ± 5 µM
